Data from patent EP4578939A1, “MYC[…]. BASED ON VARIOUS CARBON-NITROGEN METABOLIC […], METHOD FOR ISOLATING SAME, AND USE THEREOF” (Peng, Guanghao, priority 2022, dated 2024).

Experiments:
Type in all cases: cell-based
[1] = test system: Mycobacterium sp. with the deposit number CGMCC No.21272; assay: BIOLOG GEN III growth experiments; conditions: growth on the substance; strain CGMCC No.21272 (YT)
[2] = test system: Mycobacterium sp. with deposit number of CGMCC No.21273; assay: BIOLOG GEN III growth experiments; conditions: growth on the substance; strain CGMCC No.21273 (JD)
[3] = test system: Mycobacterium sp. with deposit number of CGMCC No.21273; assay: BIOLOG chemically sensitive experiments; conditions: strain CGMCC No.21273 (JD)
[4] = test system: Mycobacterium sp. with the deposit number CGMCC No.21272; assay: BIOLOG chemically sensitive experiments; conditions: strain CGMCC No.21272 (YT)
[5] = test system: Mycobacterium sp. with deposit number of CGMCC No.21273; assay: antibiotic susceptibility experiment; conditions: strain CGMCC No.21273 (JD)
[6] = test system: Mycobacterium sp. with deposit number of CGMCC No.21272; assay: antibiotic susceptibility experiment; conditions: strain CGMCC No.21272 (YT)

Compound | BIOLOG GEN III (growth experiments) Results [1] | BIOLOG GEN III (growth experiments) Results [2] | also measured
OC[C@H]1O[C@H](O[C@H]2O[C@H](CO)[C@@H](O)[C@H](O)[C@H]2O)[C@H](O)[C@@H](O)[C@@H]1O [D-trehalose] | + | + | 
CC(O)C(=O)[O-].[Na+] (centres unmarked) [1 % Sodium lactate, Sodium lactate] |  |  | BIOLOG GEN II (chemically sensitive experiments) Results [3]: +; BIOLOG GEN II (chemically sensitive experiments) Results [4]: +
OC[C@@H](O)C(O)[C@H](O)CO [D-arabitol] | - | - | 
OC[C@H]1O[C@H](O[C@H]2[C@H](O)[C@@H](O)[C@H](O)O[C@@H]2CO)[C@H](O)[C@@H](O)[C@@H]1O [D-maltose] | - | - | 
Romifloxacin |  |  | Susceptibility degree [5]: S; Susceptibility degree [6]: S
O=[Te]([O-])[O-].[K+].[K+] [Potassium tellurite] |  |  | BIOLOG GEN II (chemically sensitive experiments) Results [3]: +; BIOLOG GEN II (chemically sensitive experiments) Results [4]: +
Tween 40 | + | + | 
CCC(O)C(=O)O (centres unmarked) [A-hydroxybutyr atic acid] | - | - | 
O=C[C@H](O)[C@@H](O)[C@H](O)[C@H](O)COP(=O)(O)O [D-glucose-6-phosphoric acid] | - | - | 
CO[C@@H]1O[C@H](CO)[C@@H](O)[C@H](O)[C@H]1O [β-methyl-D-glucoside] | - | - | 
OC[C@H]1O[C@H](OC[C@H]2O[C@H](OC[C@H]3O[C@H](O[C@]4(CO)O[C@H](CO)[C@@H](O)[C@@H]4O)[C@H](O)[C@@H](O)[C@@H]3O)[C@H](O)[C@@H](O)[C@H]2O)[C@H](O)[C@@H](O)[C@H]1O [Stachyose] | - | - | 
O=C(CO)[C@@H](O)[C@H](O)[C@H](O)COP(=O)(O)O [D-fructose-6-phosphoric acid] | + | + | 
O=C(O)CCC(=O)C(=O)O [α-ketoglutarate] | + | + | 
O=C1CN(/N=C/c2ccc([N+](=O)[O-])o2)C(=O)N1 [Furantoin] |  |  | Susceptibility degree [5]: R; Susceptibility degree [6]: R
COc1cc(-c2ccc(-n3nc(-c4ccccc4)n[n+]3-c3ccccc3)c(OC)c2)ccc1-n1nc(-c2ccccc2)n[n+]1-c1ccccc1.[Cl-].[Cl-] [Tetrazolium blue] |  |  | BIOLOG GEN II (chemically sensitive experiments) Results [3]: -; BIOLOG GEN II (chemically sensitive experiments) Results [4]: -
[Cl-].[Li+] [Lithium chloride] |  |  | BIOLOG GEN II (chemically sensitive experiments) Results [3]: +; BIOLOG GEN II (chemically sensitive experiments) Results [4]: +
C[C@H](O)C(=O)O [L-lactic acid] | - | - | 
OC[C@H]1O[C@H](OCC2O[C@@H](O)[C@H](O)[C@@H](O)[C@@H]2O)[C@H](O)[C@@H](O)[C@H]1O (stereo partly drawn) [D-melibiose] | + | + | 
CC(O)CC(=O)O (racemic) [β-hydroxy-D,L-butyric acid] | + | + | 
O=C(O)C[C@H](O)C(=O)O [L-malic acid] | + | + | 
CO[C@H]1/C=C/O[C@@]2(C)Oc3c(C)c([O-])c4c(O)c(cc(O)c4c3C2=O)NC(=O)/C(C)=C\C=C\[C@H](C)[C@H](O)[C@@H](C)[C@@H](O)[C@@H](C)[C@H](OC(C)=O)[C@@H]1C.[Na+] [Rifamycin SV] |  |  | BIOLOG GEN II (chemically sensitive experiments) Results [3]: +; BIOLOG GEN II (chemically sensitive experiments) Results [4]: +
Penicillin |  |  | Susceptibility degree [5]: R; Susceptibility degree [6]: R
Cotrimoxazole |  |  | Susceptibility degree [5]: S; Susceptibility degree [6]: S
[Cl-].[Na+] [1%NaCl, NaCl] |  |  | BIOLOG GEN II (chemically sensitive experiments) Results [3]: +; BIOLOG GEN II (chemically sensitive experiments) Results [4]: +
COC(=O)[C@@H](C)O [D-methyl lactate] | - | - | 
O=C(O)C[C@@H](O)C(=O)O [D-malic acid] | - | - | 
D-salicin | - | - | 
OC[C@H]1O[C@H](OC[C@H]2O[C@H](O[C@]3(CO)O[C@H](CO)[C@@H](O)[C@@H]3O)[C@H](O)[C@@H](O)[C@@H]2O)[C@H](O)[C@@H](O)[C@H]1O [D-raffinose] | - | - | 
